Values quoted from earlier work in patent US12263175B2, “Optimised dosage of diaminophenothiazines in populations” (WisTa Laboratories Ltd., priority 2018, dated 2025).

How the values were obtained:
[1] = tested on: huntingtin derivative containing a polyglutamine stretch of 102 residues; settings: zebrafish; tested at 0, 10 and 100 μM; cited from earlier work
[2] = tested on: TDP-43 aggregates in SH-SY5Y cells; settings: 0.05 μM MT; cited from earlier work
[3] = phase 2 study, cited from earlier work

## CN(C)c1ccc2nc3ccc(=[N+](C)C)cc-3sc2c1 [MT, methylthioninium]
[1]
  Formation of aggregates of huntingtin derivative (polyglutamine stretch of 102 residues): prevented the formation of such aggregates in zebrafish in a dose-dependent manner
[2]
  Reduction of the number of TDP-43 aggregates: 50%

## CN(C)c1ccc2nc3ccc(N(C)C)cc3[s+]c2c1.[Cl-] [MTC, methylthioninium chloride]
[3]; 218 mg/day
  Efficacy at higher dose: limited efficacy
[3]
  Minimum safe and effective dose: 138 mg/day
